Values quoted from earlier work in patent publication US20220370398A1, “METHOD TO DESTABALIZE CYSTEINE EXPOSED INFECTIOUS INFORMATION VECTORS” (priority 2021, published 2022).

What was measured:
[1] = in 40% aqueous ethanol solution
[2] = tested on: bacterial infection; settings: in vitro, as a vapor

SMILES: C=CCS[S+]([O-])CC=C (centres unmarked) [2PSP, 2-Propene-1-sulfinothioic acid S-2-propenyl ester]
- solubility [1]: ~20%
- vapor antimicrobial effect [2]: inhibits bacterial infection
